Here are results for three molecules from article PMC8596843, “Platinum Cyclooctadiene Complexes with Activity against Gram‐positive Bacteria” (Chemmedchem, 2021).

In series [1] the test system is Staphylococcus aureus VRS 1, VRSA (VanA). Briefly: Antibacterial MIC assay, Gram-positive panel. It is filed as cell-based. The conditions noted are these: n=4. The procedure, abridged:
(§1)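 MIC is defined here as the lowest concentration inhibiting growth by ≥80% relative to untreated bacteria. The assay used OD600 in CAMHB after an 18 h, 37 °C incubation at 5 × 10^5 CFU/mL. Compound was dosed in 2-fold steps with DMSO capped at 0.5–1% final.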

Series [2] concerns Staphylococcus aureus ATCC 25923, MSSA. As to the kind of experiment: Antibacterial MIC assay, Gram-positive panel. It is filed as cell-based. The conditions noted are these: n=4. In a few lines: as §1
In series [3] the test system is Staphylococcus aureus ATCC 43300 (MRSA). Briefly: microbe, parasite or virus in culture. It is filed as cell-based. The conditions noted are these: for MIC Sa: CO‐ADD screening; for MIC: n=2; for MIC values as low as (panel of S. aureus strains): lowest MIC within the S. aureus panel. The procedure, abridged: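 Mid-log cultures in cation-adjusted Mueller Hinton broth at 5 × 10^5 CFU/mL exposed to 2-fold compound dilutions (20–0.156 µM or 200–0.006 µM; ≤0.5% or 1% DMSO), 37 °C for 18 h without shaking.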

The subject of series [4] is Klebsiella pneumoniae ATCC 700603 (ESBL SHV‐18). The procedure: All compounds submitted to CO‐ADD are initially screened against five bacterial strains (Staphylococcus aureus (MRSA), E. coli, Klebsiella pneumoniae, Pseudomonas aeruginosa, Acinetobacter baumannii) and two fungal strains (Candida albicans, Cryptococcus neoformans) at a single concentration (32 μg/mL or 20 μM) performed as a high‐throughput primary screening.[[11], [17a]] Any compounds that show significant growth inhibition against any of the tested strains at this step are then evaluated in a dose‐response assay against these same strains. […]
Smiles: C1C=CCCC(=CC1)C1=CCCC=CCC1.C[Pt]C.C[Pt]C […]
ATCC strains were sourced from the American Type Culture Collection and NRS strains from NARSA (Network on Antimicrobial Resistance in Staphylococcus aureus) via BEI Resources (www.beiresources.org), with clinical MSSA and MRSA isolates from Prof Graeme Nimmo, Queensland […]
Health Central Pathology. […]
Antibacterial minimum inhibitory concentration (MIC) assay
Compound Assay Plate Preparation: Compounds were dissolved in DMSO at 10mM (CO-ADD screening) or 4 mM (follow up screening) and were plated in a 2-fold dose response from 20 to 0.156 µM or 200 to 0.006 µM respectively, with a maximum of 0.5% or 1% DMSO, final in the assay […]
plated in a 2-fold dose response from 200 to 0.006 µM, with a maximum of 1 % DMSO, final in the assay concentration. (in-house screening)
For all the bacterial assays, each strain was cultured in Cation-adjusted Mueller Hinton broth (CAMHB; Bacto Laboratories 212322) at 37 °C overnight. A sample of each culture was then diluted 40-fold in fresh CAMHB and incubated at 37 °C for 1.5–3 h. The resultant mid-log phase cultures were diluted with CAMHB (CFU mL−1 measured by OD600), then added to each well of the compound-containing plates (384-well non-binding surface (NBS) plates; Corning CLS3640), giving a cell density of 5 × 10^5 CFU mL−1 and a total volume of 50 μL. Plates were covered and incubated at 37 °C for 18 h without shaking. Inhibition of bacterial growth was determined measuring absorbance at 600 nm (OD600), using media only as negative control and bacteria without inhibitors as positive control. MIC values were determined as the lowest concentration at which the growth was inhibited at ≥80%. Colistin sulfate (Sigma C4461) and vancomycin HCl (Sigma 861987) were used as internal controls on each plate for Gram-negative and Gram-positive bacteria, respectively. […]

Series [5] concerns Galleria mellonella larvae. Briefly: In vivo toxicity in moth larvae. The conditions noted are these: for concentration without any toxicity in G. mellonella: 10 μL injected, five larvae per concentration, survival and health index over 96 hours, highest tested; for dosage without any toxicity in G. mellonella: equates to 0.4 mM, 10 μL injection. The procedure:
Following a protocol previously reported by us we used larvae of the greater wax moth Galleria mellonella as a model organism for in vivo toxicity and efficacy.[20] […] Briefly, stock solutions of Pt1 and Pt2 were prepared in DMSO and diluted to final concentrations of 0.4 mM, 100 μM, 10 μM and 1 μM. […] For each concentration five larvae were injected with 10 μL and monitored for 96 hours for survival and health using the G. mellonella Health Index Scoring System.[22] […]
G. mellonella larvae were reared in controlled environmental room at Macquarie University, Sydney, Australia at 26 °C and 65% humidity with a 12-hours light/dark cycle. Larvae (~200 mg) were individually injected with 10 µL of chemical into the last right proleg using a 100 μL syringe (Hamilton Ltd). The […]
Each compound was dissolved in DMSO and diluted to final concentrations of 1 µM, 100 µM and 10 mM. We injected 5 larvae for each dilution of each compound.
Larvae injected with different dilutions of DMSO (10-1, 10-3 and 10-5) were included as negative controls.
Following injection, the larvae were incubated at 26 °C and monitored every 24 h for 4 days. Larval performance was assessed according to the G. mellonella Health Index Scoring System.[1] The experiments were repeated three separate times. […]

The test system of series [6] is Staphylococcus aureus NRS 17, GISA. Briefly: Antibacterial MIC assay, Gram-positive panel. The conditions noted are these: n=2. It is filed as cell-based. The procedure, abridged: as §1
Series [7] has as its system E. coli lpxC (non‐efficient lipid A production mutant). As to the kind of experiment: MIC against E. coli membrane mutants. It counts as cell-based, Escherichia coli. The conditions noted are these: Table S2. In a few lines:
(§2)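 Mid-log E. coli cultures, grown overnight at 37 °C, were exposed to compound over a final 0.8–100 µM range. MIC was read as the lowest inhibitory concentration.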

Series [8] deals with E. faecium ATCC 51559 MDR, VRE. Briefly: MIC in the presence of human serum (serum reversal). It is filed as cell-based, Enterococcus faecium. The conditions noted are these: 10% serum. In a few lines:
(§3)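 MIC determination repeated in the presence of 10% or 50% human serum. Bacteria grown overnight at 37 °C, diluted from mid-log cultures, and tested at a final concentration range of 0.8–100 µM.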

Series [9] has as its system B. subtilis ATCC 6051 type strain. The series is described as above. It counts as cell-based, Bacillus subtilis. The conditions noted are these: 10% serum. The procedure, abridged:
as §3

Series [10] relates to S. aureus ATCC 43300 MRSA. Described as above. The conditions noted are these: 50% serum. It counts as cell-based, Staphylococcus aureus. In a few lines:
as §3

Series [11] has as its system E. coli tolC (efflux pump deficient). As to the kind of experiment: MIC against E. coli membrane mutants. It counts as cell-based, Escherichia coli. The conditions noted are these: Table S2. In a few lines:
as §2

Marks after values point to notes of the source that are not given here.

Consider `C1=C\CC/C=C\CC/1.[Cl-].[Cl-].[Pt+2]` [Pt1, Pt(COD)Cl2], for which the MIC in series [1] (Table 2 panel) was 12.5^[a] μg/mL; in series [2] (Table 2 panel) it was 3.125^[a] μg/mL; in series [3] (Table 2 panel), 0.39^[b] μg/mL. The “MIC Sa” value in series [3] is 0.625 to 2.5 µM. The “MIC values as low as (panel of S. aureus strains)” value in series [3] amounted to 0.39 µM. The “MIC Kp” value in [4] was above 20 µM. Moreover, the “concentration without any toxicity in G. mellonella” value in [5] is at least 400 µM. The “dosage without any toxicity in G. mellonella” value in [5] lay within 6 to 7.5 mg/kg.
Consider `C1=CCC/C=C\CC1.[I][Pt][I]` [Pt2, Pt(COD)I2], for which the MIC is 6.25^[a] μg/mL in [1] (Table 2 panel), 1.56–3.125^[a] μg/mL in [2] (Table 2 panel), 0.39–0.78^[b] μg/mL in [3] (Table 2 panel) and 0.78–1.56^[b] μg/mL in [6] (Table 2 panel). The “MIC Sa” value in series [3] came to 1.25 µM. Further, in series [3], the “MIC values as low as (panel of S. aureus strains)” value stood at 0.39 µM. Also, the “MIC Kp” value in series [4] was above 20 µM. Besides, the “concentration without any toxicity in G. mellonella” value in series [5] is at least 400 µM. In addition, in series [5], the “dosage without any toxicity in G. mellonella” value fell in the range of 9 to 11 mg/kg. The molecule also gave an MIC E. coli lpxC in series [7] of 100 µM.
For `CCC1=CCCC=CCC1.[CH3][Pt][Cl]` [Pt7], the MIC in [1] (Table S1 panel) is above 200 µM; in [2] (Table S1 panel), above 200 µM; in [3] (Table S1 panel), 200 µM; in series [6] (Table S1 panel), 200 µM. In addition, the MIC in the presence of human serum in series [8], in series [9] and in series [10] was above 200 µM each time. For the same molecule, in series [3], the “MIC Sa” value is above 20 µM. For the same molecule, in [4], the “MIC Kp” value was above 20 µM. The molecule further displayed an MIC E. coli lpxC in [7] above 200 µM. For the same molecule, the MIC E. coli TolC in series [11] was above 200 µM.
